Measured values taken from patent US20250009692A1, “Micronutrient composition to prevent and reverse protein glycation during oxidative stress in human” (priority 2023, published 2025).

Assays:
[1] = tested on: Succinate Dehydrogenase (SDH) subunit A; assay: Mitobiogenesis In-Cell ELISA, SDH-A levels in H9c2 cells; type: cell-based, Rat; conditions: H9c2 cardiac muscle cells, 24 hours treatment; FIG. 6
Description: (§1) Mitobiogenesis: MitoBiogenesis™ In-Cell ELISA Kit (Colorimetric) was purchased from Abcam (Cambridge, UK). H9c2 Cells were grown to confluency in 96 well plates and treated with test ingredients for 24 hours at 37° C. Media was removed and cells were washed with Phosphate Buffered Saline provided in the kit. The cells were then fixed and processed as per the protocol provided with the kit. This assay was used to quantify two mitochondrial proteins: subunit I of Complex IV (COX-I) and the 70 kDa subunit of Complex II (SDH-A). No treatment control was used to show relative protein levels in each case.

[2] = tested on: Microglial Cells (IMG) exposed to Hydrogen Peroxide; assay: Cell Protection from Oxidative Stress (Alamar Blue viability); type: cell-based, mice; conditions: IMG cells pretreated 24 hours, H2O2 1 hour, 24 hours recovery; FIG. 8
Description: Cell Lines: Rat Cardiomyoblasts (H9c2) were obtained from ATCC (Virginia, USA). […] Cells were maintained in Dulbecco's Modified Eagle's Medium (DMEM) from Thermofisher (MA, USA) supplemented with 10% Fetal Bovine Serum (FBS) from Thermofisher (MA, USA) and 1% Penicillin-Streptomycin (PS) from MilliporeSigma (MA, USA). Microglial Cells (IMG) were obtained from Kerafast (MA, USA). It is an immortalized microglial cell line isolated from the brains of adult mice. Cells were maintained in DMEM supplemented with 10% FBS and 1% PS.
Cell Protection from Oxidative Stress: IMG cells were grown to confluency and pretreated with test compounds for 24 hours at 37° C. Media was removed and cells were exposed to Hydrogen Peroxide for 1 hour at 37° C. After one hour, H2O2 was removed and cells were incubated in DMEM supplemented with 1% BSA for a further 24 hours at 37° C. to allow them to stabilize. Subsequently, cell viability was assessed using Alamar Blue Cell Viability Reagent from Thermofisher (MA, USA). Alamar Blue Reagent is an oxidized form of redox indicator that is blue in color. When incubated with viable cells, the reagent changes color from blue to red and can be measured by absorbance at 570 nm.
We tested protective effects of individual natural compounds and their combinations in microglial cells exposed to oxidative stress generated by hydrogen peroxide.

[3] = tested on: subunit I of Complex IV (COX-I); assay: Mitobiogenesis In-Cell ELISA, COX-I levels in H9c2 cells; type: cell-based, Rat; conditions: H9c2 heart muscle cells, 24 hours treatment; FIG. 7
Description: as §1

Compound	increase of SDH levels compared to control [1]	survival of cells exposed to hydrogen peroxide (viable cells) [2]	increase of Cox-1 levels compared to control [3]
CC(=O)C(=O)[O-].[Na+] [sodium pyruvate, Sodium Pyruvate]	54%	–	–
Magnesium Citrate	–	about 50%	–
CSCC[C@H](N)C(=O)O [methionine, Methionine]	–	about 50%	–
O=C([O-])CC(O)C(=O)[O-].[Mg+2] (stereo not drawn) [magnesium malate, Magnesium Malate]	86%	about 50%	–
N[C@@H](CS)C(=O)O [cysteine, L Cysteine]	–	–	41%
